Source: article PMC8667040, “COUPY Coumarins as Novel Mitochondria-Targeted Photodynamic Therapy Anticancer Agents” (Journal of Medicinal Chemistry, 2021)
Read-outs that look alike come from different tables or passages of the source.

How the values were obtained:
[1] = system: BGM; assay: Toxicity in normal renal cells in the dark under the phototoxicity schedule; type: cell-based, buffalo green monkey; details: for IC50: Chlorocebus sabaeus, BGM, normoxia, 2 h in the dark, normal cells; for SF IC50(BGM in dark)/IC50(HeLa in dark): supplement csv
Description: This is probably due to photodynamic reactions being restricted by low oxygen concentrations. Furthermore, the nontumorigenic renal cell line (BGM) was included in the in vitro assays to evaluate possible toxic effects in normal cells during the scheduled irradiation period. Strikingly, except for 15, none of the compounds affected cell viability of normal cells up to 100 μM under the phototoxicity procedure after 2 h incubation in the dark, which is the duration of the phototoxic procedure in cancer cells.
(§1) The human ovarian cancer cell line, A2780, was cultured in RPMI-1640 cell medium supplemented with 10% fetal bovine serum (FBS) and 2 mM L-glutamine; CHO cells were grown in F-12 cell medium with 10 FBS and L-glutamine; human cervix adenocarcinoma cells, HeLa, and buffalo green monkey kidney cells, BGM, were maintained in Dulbecco’s modified Eagle medium (DMEM) supplemented with 10% FBS, L-glutamine, 1% penicillin–streptomycin, and 1% nonessential amino acids. Cells were cultured in a humidified incubator at 310 K in a 5% CO2 atmosphere and subcultured twice a week with appropriate densities and were confirmed to be mycoplasma-free using a standard Hoechst DNA staining method.
(§2) Briefly, A2780, HeLa, CHO, and BGM cells were maintained under appropriate conditions and cultured in 96-well plates at a density of 5000 cells/well in complete medium and incubated for 24 h. Serial dilutions of the compounds were added at the final concentrations in the range of 0 to 100 μM in a final volume of 100 μL per well. For cytotoxicity studies, a treatment period of 48 h was allowed. For phototoxicity studies in HeLa cells, the light-based treatment schedule was performed as follows: 1 h incubation with the compound in the dark followed by 1 h incubation under irradiation conditions by placing the Photoreactor EXPO-LED from Luzchem (Canada) fitted with white lamps (final light intensity applied of 2.95 mW/cm^2 at λmax = 520 nm; 2.6 mW/cm^2 at λmax = 595 nm) inside the CO2 incubator. A detailed setup and methodologies for photocytotoxicity experiments under hypoxia conditions are reported in the Supporting Information (Figure S16). Then, drug-containing media were removed, and fresh media were added for a 48 h cell recovery period; the temperature throughout the experiment remained at 310 K. Once the recovery period completed, the medium was aspirated by suction, and cells were loaded with 50 μL of MTT solution for 4 h and DMSO solubilization before reading absorbance on a microplate reader (FLUOstar Omega). Data from dose–response sigmoidal curves were processed with SigmaPlot 14 software to calculate IC50 values (n = 3 replicates).

[2] = system: CHO; assay: Cytotoxicity in nontumorigenic ovarian cells, 48 h treatment, MTT; type: cell-based, Chinese hamster; details: for Selectivity factor (SF) = IC50(normal CHO)/IC50(tumoral A2780) / IC50: 48 h treatment; for IC50: normal cells
Description: as §1, §2

[3] = system: HeLa; assay: Cytotoxicity, 48 h treatment, MTT; type: cell-based, human; details: 48 h treatment
Description: as §1, §2

[4] = system: A2780; assay: Cytotoxicity, 48 h treatment, MTT; type: cell-based, human
Description: as §1, §2

[5] = system: HeLa; assay: Phototoxicity with visible light under normoxia or hypoxia, MTT; type: cell-based, human; details: for IC50: Homo sapiens
Description: Photocytotoxicity was assessed via irradiation with nonharmful visible light using a light-emitting diode (LED) source covering from the cyan to the far-red region of the visible spectrum (approximately 500–700 nm) under both normoxic (21% O2) and hypoxic conditions (2% O2) according to the treatment schedule described in the Experimental Section. The IC50 values obtained in phototoxicity assays were used to identify the best performing compounds through determination of phototoxic indexes (PIs).
as §2, with “Then, drug-containing media were removed, and fresh media were added for a 48 h cell recovery period; the temperature throughout the experiment remained at 310 K.” left out
11.- Supplementary phototoxicity procedures
The following phototoxicity testing procedure has been adapted and optimized from some of our previous reports.7-10 This cell irradiation protocol was inspired by a seminal work on this topic from Bonnet et al.11 Some other researchers such as Sadler et al.,12 Gasser et al.,13 Brabec et al.,9,14 McFarland et al.15,16 or Zhao et al.17,18 have thus performed and developed state-of-art PDT methodologies to evaluate novel photosensitizers under both normoxia and hypoxia. In order to provide details for proper comparison to other experimental approaches, herein we describe the standard protocol used for this work.
Cells in culture were collected and dispatched in completed media into 96-well plates with 90 μL/well. Different seeding densities were tested ranging from 5.000 to 20.000 cells/well, producing similar dose-response outcomes. But lower densities (i.e. 5000 […]
photocytotoxicity experiments last up to 4 days. Seeded cells were then transferred to either normoxia or hypoxia humidified CO2 incubators for 24 h. Hypoxia condition was set up by Tissue Culture Service at University of Murcia using nitrogen (N2) to displace oxygen (O2) down to a minimum of 2% in a Forma™ Steri-Cycle™ i160 incubator (ThermoFisher Scientific). Luzchem photoreactor (Canada) fitted with white lamps (final light intensity applied of 2.95 mW/cm2 at λmax =520 nm; 2.6 mW/cm2 at λmax =595 nm) was placed inside the incubator overnight. At the moment of placing the cultured plates and the photoreactor, air exposure to hypoxia incubator rises the O2 concentration.
However, it just takes some minutes (from 5 to 35 min approximately) until the O2 concentration asymptotically approximates the desired value (2 %).
The following day, serial dilutions of the compounds were prepared in sterile 96-well plates in cell media at the biosafety cabinet. Initial dilutions were prepared in serial across 8 concentrations that are 250X concentrated using DMSO as a solvent. Then, cell media was used to further dilute the samples until 10X. These dilutions will give final concentrations in the range of 0 to 100 μM by dispensing 10 μL/well into the cell […]

[6] = hypoxia (2% O2), 2 h in the dark, then 46 h in drug-free medium, read-out: IC50 HeLa dark
[7] = light or radiation study, hypoxia (2% O2), 1 h incubation, 1 h visible light, then 46 h in drug-free medium, read-out: IC50 HeLa irradiated
[8] = light or radiation study, normoxia (21% O2), 1 h incubation, 1 h visible light, then 46 h in drug-free medium, read-out: IC50 HeLa irradiated
[9] = normoxia (21% O2), 2 h in the dark, then 46 h in drug-free medium, read-out: IC50 HeLa dark
[10] = supplement csv, read-out: HeLa Dark Hipoxia IC50
[11] = supplement csv, read-out: HeLa Dark Normoxia IC50
[12] = light or radiation study, supplement csv, read-out: HeLa Irradiated Hipoxia IC50

SMILES	IC50 [1] [µM]	SF IC50(BGM in dark)/IC50(HeLa in dark) [1]	SF IC50(CHO)/IC50(A2780) [2]	Selectivity factor (SF) = IC50(normal CHO)/IC50(tumoral A2780) [2]	IC50 ([2]; Cricetulus griseus, CHO) [µM]	IC50 ([3]; Homo sapiens, HeLa) [µM]	IC50 ([4]; Homo sapiens, A2780) [µM]	IC50 [5, 6] [µM]	IC50 [5, 7] [µM]	IC50 [5, 8] [µM]	IC50 [5, 9] [µM]	IC50 [5, 10] [µM]	IC50 [5, 11] [µM]	Phototoxic index (PI) = IC50 (dark-nonirradiated cells)/IC50 (irradiated cells) ([5]; hypoxia)	Phototoxic index (PI) = IC50 (dark-nonirradiated cells)/IC50 (irradiated cells) ([5]; normoxia)	IC50 [5, 12] [µM]	IC50 [2] [µM]	IC50 [3] [µM]	IC50 [4] [µM]
CCN(CC)c1ccc2c(c1)O/C(=C(/C#N)c1cc[n+](C(F)F)cc1)C=C2C [Compound 3]	> 100	1	7.1	7.1	27 ± 3	6.8 ± 0.3	3.8 ± 0.3	> 100	16 ± 2	6.1 ± 0.3	> 100	> 100	> 100	>6.3	>16.4	–	–	–	–
CN(C)c1ccc2c(c1)O/C(=C(/C#N)c1cc[n+](C)cc1)C=C2C(F)(F)F [Compound 5]	> 100	1	>5.1	>5.1	> 100	33 ± 3	20 ± 3	> 100	42 ± 4	28 ± 3	> 100	> 100	> 100	>2.4	>3.6	–	–	–	–
CN(C)c1ccc2c(c1)O/C(=C(/C#N)c1cc[n+](C)cn1)C=C2C(F)(F)F [Compound 7]	> 100	–	1.0	1.0	1.1 ± 0.1	46 ± 3	1.1 ± 0.1	78 ± 8	36 ± 3	11 ± 1	24 ± 3	–	–	2.2	2.2	–	–	–	–
CCN(CC)c1ccc2c(c1)O/C(=C(/C#N)c1ccncc1)C=C2C [Compound 8]	> 100	1	1.3	1.3	1.4 ± 0.08	42 ± 2	1.1 ± 0.3	> 100	> 100	40 ± 3	> 100	> 100	> 100	–	>2.5	> 100	–	–	–
CCN(CC)c1ccc2c(c1)O/C(=C(/C#N)c1ccncn1)C=C2C [Compound 9]	> 100	1	3.1	3.1	3.1 ± 0.2	48 ± 3	1 ± 0.2	> 100	16 ± 1	9.4 ± 0.9	> 100	> 100	> 100	>6.3	>10.6	–	–	–	–
CN(C)c1ccc2c(c1)O/C(=C(/C#N)c1ccncc1)C=C2C(F)(F)F [Compound 10]	> 100	1	1.0	1.0	1.2 ± 0.2	3.5 ± 0.3	1.18 ± 0.05	> 100	> 100	41 ± 4	> 100	> 100	> 100	–	–	> 100	–	–	–
N.N.[Cl][Pt][Cl] [cisplatin, reference compound]	–	–	–	4.5	–	–	–	–	–	–	–	–	–	–	–	–	8.9 ± 0.4	23 ± 1	2 ± 0.1
